Results: ChEMBL document CHEMBL1909046, “DrugMatrix in vitro pharmacology data”

Legend:
[1] = target: T1, Alpha-2C adrenergic receptor (Homo sapiens, UniProt P18825); test: DRUGMATRIX: Adrenergic Alpha-2C radioligand binding (ligand: [3H] MK-912); assay type: cell membranes, Sf9, Membrane
T1 sequence (P18825 whole entry): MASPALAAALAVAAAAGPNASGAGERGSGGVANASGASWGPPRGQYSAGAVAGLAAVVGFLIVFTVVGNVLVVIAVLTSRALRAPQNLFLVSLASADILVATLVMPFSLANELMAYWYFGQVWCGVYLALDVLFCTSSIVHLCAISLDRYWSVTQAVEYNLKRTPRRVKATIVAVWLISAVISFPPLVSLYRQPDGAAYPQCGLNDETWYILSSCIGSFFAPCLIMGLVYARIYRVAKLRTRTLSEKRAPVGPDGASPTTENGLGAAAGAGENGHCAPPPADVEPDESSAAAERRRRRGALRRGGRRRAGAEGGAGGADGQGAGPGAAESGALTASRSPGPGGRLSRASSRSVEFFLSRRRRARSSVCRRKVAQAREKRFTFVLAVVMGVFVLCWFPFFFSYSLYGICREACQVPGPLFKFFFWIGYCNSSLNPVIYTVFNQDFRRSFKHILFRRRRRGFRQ

[2] = DRUGMATRIX: beta-Lactamase enzyme inhibition (substrate: Nitrocefin); set-up: species or system Bacillus cereus; conditions: Not Active = under 50% inhibition at 10 µM
[3] = DRUGMATRIX: Calcium Channel Type L, Benzothiazepine radioligand binding (ligand: [3H] Diltiazem); assay type: cell membranes, Rattus norvegicus, Wistar, Brain, Membrane; conditions: Not Active = under 50% inhibition at 10 µM
[4] = target: T2, Cholecystokinin receptor type A (Homo sapiens, UniProt P32238); assay type: cell membranes, Membrane; conditions: 1321-n1; note: in other assays of this panel Not Active means under 50% inhibition at 10 µM
T2 sequence (P32238 whole entry): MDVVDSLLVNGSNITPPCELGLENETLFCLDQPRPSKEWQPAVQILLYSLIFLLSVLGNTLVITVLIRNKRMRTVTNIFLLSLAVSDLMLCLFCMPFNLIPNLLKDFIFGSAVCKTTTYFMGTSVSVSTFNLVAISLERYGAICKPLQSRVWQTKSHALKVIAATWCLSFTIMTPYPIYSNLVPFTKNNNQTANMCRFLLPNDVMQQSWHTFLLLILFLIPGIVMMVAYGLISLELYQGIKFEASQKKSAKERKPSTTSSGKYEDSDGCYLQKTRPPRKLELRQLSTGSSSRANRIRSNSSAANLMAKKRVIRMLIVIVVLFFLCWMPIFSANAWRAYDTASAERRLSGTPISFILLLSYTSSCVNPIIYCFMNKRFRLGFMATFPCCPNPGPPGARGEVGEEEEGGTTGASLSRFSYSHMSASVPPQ

Glycine receptor = Glycine receptor (Rattus norvegicus, UniProt P22771+P24524+P07727+P20781); assay type: cell membranes, Wistar, Spinal cord, Membrane; note: in other assays of this panel Not Active means under 50% inhibition at 10 µM
Melanocortin receptor 3 = Melanocortin receptor 3 (Homo sapiens, UniProt P41968); assay type: cell membranes, Membrane; conditions: hek293; note: in other assays of this panel Not Active means under 50% inhibition at 10 µM
[5] = target: Platelet-activating factor receptor (Homo sapiens, UniProt P25105); assay type: tissue-based; note: in other assays of this panel Not Active means under 50% inhibition at 10 µM
Platelet-activating factor receptor, sequence (P25105 whole entry): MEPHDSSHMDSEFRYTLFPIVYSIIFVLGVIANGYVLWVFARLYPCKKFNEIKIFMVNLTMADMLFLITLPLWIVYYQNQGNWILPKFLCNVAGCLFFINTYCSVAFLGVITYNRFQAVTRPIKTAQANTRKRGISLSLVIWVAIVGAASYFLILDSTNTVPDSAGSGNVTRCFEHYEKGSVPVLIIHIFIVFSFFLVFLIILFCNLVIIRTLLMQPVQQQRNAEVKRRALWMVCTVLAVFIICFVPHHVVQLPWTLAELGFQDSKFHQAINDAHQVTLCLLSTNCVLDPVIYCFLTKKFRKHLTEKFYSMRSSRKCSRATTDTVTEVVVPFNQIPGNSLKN

Melanocortin receptor 3, sequence (P41968 whole entry): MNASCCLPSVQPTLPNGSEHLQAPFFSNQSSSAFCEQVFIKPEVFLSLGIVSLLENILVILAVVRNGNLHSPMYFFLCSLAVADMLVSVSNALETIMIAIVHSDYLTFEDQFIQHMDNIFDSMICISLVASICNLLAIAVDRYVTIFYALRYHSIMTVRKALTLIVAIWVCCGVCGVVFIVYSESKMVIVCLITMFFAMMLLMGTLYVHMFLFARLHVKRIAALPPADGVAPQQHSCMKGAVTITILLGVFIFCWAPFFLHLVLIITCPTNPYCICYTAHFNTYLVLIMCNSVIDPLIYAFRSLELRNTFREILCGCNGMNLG

Structure (SMILES)	IC50 ([1]; sf9)	IC50 [2]	Ki [2]	IC50 [3]	Ki [3]	IC50 [4]	IC50 (Glycine receptor)	IC50 (Melanocortin receptor 3)	IC50 [5]	IC50 ([1]; read-out: IC50)	Ki ([1]; read-out: Ki)	IC50 ([3]; read-out: IC50)	Ki ([3]; read-out: Ki)
CCCNC(C)C(=O)Nc1ccccc1C (stereo unspecified) [PRILOCAINE]	Not Active	Not Active	Not Active	Not Active	Not Active	Not Active	Not Active	Not Active	Not Active	–	–	–	–
NS(=O)(=O)c1cc(C2(O)NC(=O)c3ccccc32)ccc1Cl (stereo unspecified) [CHLORTHALIDONE]	Not Active	Not Active	Not Active	Not Active	Not Active	Not Active	Not Active	Not Active	Not Active	–	–	–	–
CCN(CC)CCCC(C)Nc1c2ccc(Cl)cc2nc2ccc(OC)cc12 (stereo unspecified) [QUINACRINE]	–	Not Active	Not Active	–	–	Not Active	Not Active	Not Active	Not Active	3.86 µM	0.56 µM	1.08 µM	0.956 µM
CN1CCC(=C2c3ccccc3CC(=O)c3sccc32)CC1 [KETOTIFEN]	Not Active	Not Active	Not Active	–	–	Not Active	Not Active	Not Active	Not Active	–	–	2.31 µM	2.05 µM
Cc1c(O)cccc1C(=O)N[C@@H](CSc1ccccc1)[C@H](O)CN1C[C@H]2CCCC[C@H]2C[C@H]1C(=O)NC(C)(C)C	Not Active	Not Active	Not Active	–	–	Not Active	Not Active	Not Active	Not Active	–	–	14.6 µM	13 µM
Cn1c(=O)c2c(ncn2C)n(C)c1=O [CAFFEINE]	Not Active	Not Active	Not Active	Not Active	Not Active	Not Active	Not Active	Not Active	Not Active	–	–	–	–
CC(C)NCC(O)c1ccccc1Cl (stereo unspecified) [CLORPRENALINE]	Not Active	Not Active	Not Active	Not Active	Not Active	Not Active	Not Active	Not Active	Not Active	–	–	–	–
NC(=O)c1cccnc1 [NIACINAMIDE]	Not Active	Not Active	Not Active	Not Active	Not Active	Not Active	Not Active	Not Active	Not Active	–	–	–	–
C[C@]12C=CC(=O)C=C1CC[C@H]1[C@@H]3C[C@@H](O)[C@](O)(C(=O)CO)[C@@]3(C)C[C@H](O)[C@@]12F [TRIAMCINOLONE]	Not Active	Not Active	Not Active	Not Active	Not Active	Not Active	Not Active	Not Active	Not Active	–	–	–	–
CC(=O)OCC(=O)[C@@]1(O)CC[C@H]2[C@@H]3CCC4=CC(=O)CC[C@]4(C)[C@@]3(F)[C@@H](O)C[C@@]21C [FLUDROCORTISONE ACETATE]	Not Active	Not Active	Not Active	Not Active	Not Active	Not Active	Not Active	Not Active	Not Active	–	–	–	–
CN(C)C(=O)Oc1cccc([N+](C)(C)C)c1.[Br-] [NEOSTIGMINE BROMIDE]	Not Active	Not Active	Not Active	Not Active	Not Active	Not Active	Not Active	Not Active	Not Active	–	–	–	–
C[C@]12CC[C@@H]3c4ccc(O)cc4CC[C@H]3[C@@H]1C[C@@H](O)[C@@H]2O [ESTRIOL]	Not Active	Not Active	Not Active	Not Active	Not Active	Not Active	Not Active	Not Active	Not Active	–	–	–	–
CCN(CC)CCNC(=O)c1ccc(N)cc1 [PROCAINAMIDE]	Not Active	Not Active	Not Active	Not Active	Not Active	Not Active	Not Active	Not Active	Not Active	–	–	–	–
O=C(O)P(=O)(O)O [FOSCARNET]	Not Active	Not Active	Not Active	Not Active	Not Active	Not Active	Not Active	Not Active	Not Active	–	–	–	–
C[C@H]1[C@H](NC(=O)/C(=N\OC(C)(C)C(=O)O)c2csc(N)n2)C(=O)N1S(=O)(=O)O [AZTREONAM]	Not Active	Not Active	Not Active	Not Active	Not Active	Not Active	Not Active	Not Active	Not Active	–	–	–	–
CN1C[C@@H]2C[C@H]1CN2c1cc2c(cc1F)c(=O)c(C(=O)O)cn2C1CC1 [DANOFLOXACIN]	Not Active	Not Active	Not Active	Not Active	Not Active	Not Active	Not Active	Not Active	Not Active	–	–	–	–
CC(=O)OCC(=O)[C@@]12OC(C)(C)O[C@@H]1C[C@H]1[C@@H]3C[C@H](F)C4=CC(=O)C=C[C@]4(C)[C@@]3(F)[C@@H](O)C[C@@]12C [FLUOCINONIDE]	Not Active	Not Active	Not Active	Not Active	Not Active	Not Active	Not Active	Not Active	Not Active	–	–	–	–
CN1CCCC(CN2c3ccccc3Sc3ccccc32)C1 (stereo unspecified) [MEPAZINE]	Not Active	Not Active	Not Active	Not Active	Not Active	Not Active	Not Active	Not Active	Not Active	–	–	–	–
NCCCNCCSP(=O)(O)O [AMIFOSTINE]	Not Active	Not Active	Not Active	Not Active	Not Active	Not Active	Not Active	Not Active	Not Active	–	–	–	–
CC[C@]1(O)C[C@@H]2CN(CCc3c([nH]c4ccccc34)[C@@](C(=O)OC)(c3cc4c(cc3OC)N(C)[C@H]3[C@@](O)(C(N)=O)[C@H](O)[C@]5(CC)C=CCN6CC[C@]43[C@@H]65)C2)C1 [VINDESINE]	Not Active	Not Active	Not Active	Not Active	Not Active	Not Active	Not Active	Not Active	Not Active	–	–	–	–
CCn1cc(C(=O)O)c(=O)c2cc(F)c(N3CCNC(C)C3)c(F)c21 (stereo unspecified) [LOMEFLOXACIN]	Not Active	Not Active	Not Active	Not Active	Not Active	Not Active	Not Active	Not Active	Not Active	–	–	–	–
CN1CCN(c2c(F)cc3c(=O)c(C(=O)O)cn(CCF)c3c2F)CC1 [FLEROXACIN]	Not Active	Not Active	Not Active	Not Active	Not Active	Not Active	Not Active	Not Active	Not Active	–	–	–	–
CC(C)(C(=O)O)c1ccc(C(O)CCCN2CCC(C(O)(c3ccccc3)c3ccccc3)CC2)cc1 (stereo unspecified) [FEXOFENADINE]	Not Active	Not Active	Not Active	Not Active	Not Active	Not Active	Not Active	Not Active	Not Active	–	–	–	–
C[C@H]1COc2c(N3CCN(C)CC3)c(F)cc3c(=O)c(C(=O)O)cn1c23.C[C@H]1COc2c(N3CCN(C)CC3)c(F)cc3c(=O)c(C(=O)O)cn1c23.O [LEVOFLOXACIN]	Not Active	Not Active	Not Active	Not Active	Not Active	Not Active	Not Active	Not Active	Not Active	–	–	–	–
NC(=O)c1cccc(N)c1 [3-AMINOBENZAMIDE]	Not Active	Not Active	Not Active	Not Active	Not Active	Not Active	Not Active	Not Active	Not Active	–	–	–	–
